This is an account of results in article PMC2850566 (Biochemical pharmacology, 2010).

Where two headings read alike, the source gives them in different places.

The target in one assay is human β2-AR (Homo sapiens, UniProt P07550). The following applies: plotted from previously reported ΔH° and TΔS°; cited from earlier work.
For assay [1], the system named is rat cardiomyocyte. The following applies: read-out: EC50cardio; rat cardiomyocyte contractility; cited from earlier work.
The test system of another assay is β2-AR. The following applies: cardiomyocytes; cited from earlier work.
Assay [2] relates to rat cardiomyocyte. Briefly: Rat cardiomyocyte contractility model. Type of assay: cell-based. The following applies: read-out: EC50cardio, authors' unpublished data.

Sequence of human β2-AR (P07550 whole entry): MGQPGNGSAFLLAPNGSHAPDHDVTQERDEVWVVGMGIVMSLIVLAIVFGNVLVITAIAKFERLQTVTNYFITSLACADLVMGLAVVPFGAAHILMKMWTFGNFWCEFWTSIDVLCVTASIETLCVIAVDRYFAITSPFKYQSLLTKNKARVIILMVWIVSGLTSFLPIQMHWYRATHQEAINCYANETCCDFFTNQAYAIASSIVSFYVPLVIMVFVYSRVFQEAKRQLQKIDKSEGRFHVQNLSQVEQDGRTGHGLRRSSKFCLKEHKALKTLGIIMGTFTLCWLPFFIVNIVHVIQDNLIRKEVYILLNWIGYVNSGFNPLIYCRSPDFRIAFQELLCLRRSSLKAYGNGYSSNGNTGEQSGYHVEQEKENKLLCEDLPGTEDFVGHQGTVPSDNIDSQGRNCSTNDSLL

On to `CC(Cc1ccc(O)cc1)NCC(O)c1cc(O)cc(O)c1` (racemic) [rac-fenoterol], for which the “Quadrant in the TΔS° and ΔH° plot” value at human β2-AR is “enthalpy-entropy driven process”. As to `CC(Cc1ccc(O)cc1)NCC(O)c1cc(O)cc(O)c1` [(R,R')-fenoterol], in the assay with rat cardiomyocyte [1], the EC50 is 0.073 µM. Further, the “β2-AR coupling preference for G-proteins” value in the assay on β2-AR is “preferentially activates Gs signaling”. Consider `CC(Cc1ccc(O)cc1)NCC(O)c1cc(O)cc(O)c1` [(S,S')-fenoterol], for which the EC50 with rat cardiomyocyte [2] was 55 µM. With `C[C@@H](Cc1ccc(O)cc1)NC[C@H](O)c1cc(O)cc(O)c1` [(R,S')-fenoterol], the EC50 in the assay with rat cardiomyocyte [1] is 0.575 µM. Turning to `C[C@H](Cc1ccc(O)cc1)NC[C@@H](O)c1cc(O)cc(O)c1` [(S,R')-fenoterol], the EC50 in the assay on rat cardiomyocyte [1] is 2.34 µM. In the assay on β2-AR, the “β2-AR coupling preference for G-proteins” value was “activates both Gs and Gi proteins”.
